Assay results as given in patent US20120277161A1, “INHIBITION OF MULTIPLE CELL ACTIVATION PATHWAYS” (INTER-K PTY LIMITED, priority 2009, published 2012).
Entries after “also recorded” stand apart in the source; their conditions may differ.

Experiments:
[1] = test system: ERK1/2 activation in HT29 cells; assay: Phospho-ERK1/2 ELISA upon serum (FCS) stimulation, HT29 cells; assay type: cell-based, human
Experimental: HT29 cells were harvested using 0.5% trypsin EDTA (Invitrogen) and 5000 cells in 200 μL media were plated into each well of a clear NUNC tissue culture treated 96 well plate (NUNC). Cells were seeded in DMEM media (Invitrogen) supplemented with 10% (v/v) heat inactivated foetal calf serum (FCS, Invitrogen), 1% (v/v) L-glutamine (Invitrogen) and 2% (v/v) 1M Hepes buffer solution (Invitrogen). Cells were then incubated overnight at 37° C.
The following day, the growth medium was replaced with 100 μL of DMEM supplemented with 1% (v/v) L-glutamine and 2% (v/v) 1M HEPES buffer solution (Invitrogen) (serum free medium, SFM) and plates incubated for a further 24 hours at 37° C.
The dendrimers were re-constituted in SFM and the desired concentration was added to the plate in 100 μL SFM to make the total volume of each well 200 μL. The control wells (minus peptide) had only SFM added. The assay plate was then incubated at 37° C. for 4 hours. In studies in which cells were subjected to stimulation by serum, 22 μL FCS (10% v/v final concentration) was added to wells for the final 10 minutes at 37° C. SFM only (22 μL) was added to control wells.
Phospho-ERK levels were evaluated by ELISA utilising an Active Motif FACE ERK1/2 ELISA kit (Australian Biosearch, WA, Australia) as per the manufacturers instructions. Briefly, media was replaced and cells fixed with 4% formaldehyde in PBS, and after a one hour incubation with antibody blocking buffer (supplied), the primary phospho-ERK antibody was added and the plate incubated overnight at 4° C. Antibody dilution buffer only was added to control test wells containing no primary antibody. The following day, HRP-conjugated secondary antibody was added to all wells for one hour before plates were developed and the absorbance measured at 450 nm using a Labsystems Multiskan EX microplate reader (Labsystems, Thermo Labsystems, UK).

[2] = test system: ERK1/2 activity in skin fibroblast cells; assay: Phospho-ERK1/2 upon FCS stimulation, skin fibroblast cells; assay type: cell-based; details: compared to HT29 cells, data not shown
[3] = test system: HT29 human colon cancer cells; assay: Cell proliferation (MTT) assay, HT29 cells; assay type: cell-based; details: MTT, 24 hour incubation period
Experimental: 6.1 Cell Proliferation (MTT) Assay Single cell suspensions of viable trypsinised cells were seeded into 96-well tissue culture plates at a density of 2×10^3 cells per well in a volume of 100 μl of a suitable culture media supplemented with heat inactivated foetal calf serum (FCS) (e.g., Dulbecco's Modified Eagles Medium (DMEM), with 10% v/v FCS, 1% L-glutamine, 2% (v/v) Hepes, and antibiotics). A set of triplicate wells was prepared for each concentration of the peptide dendrimer being tested. Additional sample wells containing untreated cells or media alone were set up in each treatment plate and processed in parallel as reference controls. A zero-time plate of untreated cells and media-alone wells was simultaneously prepared and an MTT assay carried out on this plate at the time of addition of the kinase inhibitor (i.e., polypeptide or dendrimer) to treatment plates. All plates were cultured for 24 hours before addition of the test dendrimer.
To prepare the MTT solution 100 mg of MTT (3-(4,5-dimethylthiazolyl-2)-2,5-diphenyltetrazolium bromide) (Cat #. M-128, Sigma, St Louis Mo.), is mixed with 20 ml of PBS at pH 7.4. The resulting solution is filter sterilized (0.2 μM syringe filter) and stored at 4° C. protected from light until use. MTT substrate is cleaved in growing cells to yield a water insoluble salt. After solubilisation of the salt crystals, a coloured product is produced the measurement of which allows quantitation of the proliferative activity of the cultured cells.
Appropriate concentrations of the kinase inhibitor were prepared by dilution of freshly prepared sterile 1 mM stock solutions into cell culture media to give a final well volume of 200 μl containing 10% v/v FCS. The zero-plate was processed by addition of MTT at this time. Cell culture was continued for a further 24 or 48 hours before addition of 20 μl of MTT in PBS (5 mg/ml, 0.2 um filter sterilised). The MTT cell proliferation assay measures cell proliferation rate and, in instances where cell viability is compromised, the assay indicates a comparative reduction in cell viability. After a 3 hour incubation in the presence of MTT (5% CO2 in air at 37° C.), plates were centrifuged at 450 g for 5 minutes, supernatant was removed by gentle suction and precipitated tetrazolium salt resuspended into 150 μl DMSO:glycine (0.1M glycine, 0.1M NaCl pH 10.5) (6:1 v/v) solution. Plates were gently vortexed to complete solubilisation of crystalline material and absorbance was read at 550 nm using a microplate reader. Sample data were processed to determine the comparative growth of treated samples relative to untreated controls.
HT29 cells were cultured for 48 hours in the presence of selected dendrimers and proliferation of the cells was assessed by MTT assay essentially as described in Example 6.1. The results were calculated as percentage proliferation of control cells (not treated with dendrimer).

`CC(C)C[C@H](NC(=O)[C@@H]1CCCN1C(=O)[C@H](CC(N)=O)NC(=O)[C@H](CCCCN)NC(=O)[C@H](C)NC(=O)[C@H](CCCCN)NC(=O)[C@H](CO)NC(=O)[C@@H](N)CCCNC(=N)N)C(=O)N[C@@H](Cc1ccc(O)cc1)C(=O)N[C@@H](CCCNC(=N)N)C(=O)NCCCC[C@H](NC(=O)[C@H](CCCNC(=N)N)NC(=O)[C@H](Cc1ccc(O)cc1)NC(=O)[C@H](CC(C)C)NC(=O)[C@@H]1CCCN1C(=O)[C@H](CC(N)=O)NC(=O)[C@H](CCCCN)NC(=O)[C@H](C)NC(=O)[C@H](CCCCN)NC(=O)[C@H](CO)NC(=O)[C@@H](N)CCCNC(=N)N)C(=O)NCCCC[C@H](NC(=O)[C@H](CCCCNC(=O)[C@H](CCCNC(=N)N)NC(=O)[C@H](Cc1ccc(O)cc1)NC(=O)[C@H](CC(C)C)NC(=O)[C@@H]1CCCN1C(=O)[C@H](CC(N)=O)NC(=O)[C@H](CCCCN)NC(=O)[C@H](C)NC(=O)[C@H](CCCCN)NC(=O)[C@H](CO)NC(=O)[C@@H](N)CCCNC(=N)N)NC(=O)[C@H](CCCNC(=N)N)NC(=O)[C@H](Cc1ccc(O)cc1)NC(=O)[C@H](CC(C)C)NC(=O)[C@@H]1CCCN1C(=O)[C@H](CC(N)=O)NC(=O)[C@H](CCCCN)NC(=O)[C@H](C)NC(=O)[C@H](CCCCN)NC(=O)[C@H](CO)NC(=O)[C@@H](N)CCCNC(=N)N)C(=O)NCCCC[C@H](NC(=O)[C@H](CCCCNC(=O)[C@H](CCCCNC(=O)[C@H](CCCNC(=N)N)NC(=O)[C@H](Cc1ccc(O)cc1)NC(=O)[C@H](CC(C)C)NC(=O)[C@@H]1CCCN1C(=O)[C@H](CC(N)=O)NC(=O)[C@H](CCCCN)NC(=O)[C@H](C)NC(=O)[C@H](CCCCN)NC(=O)[C@H](CO)NC(=O)[C@@H](N)CCCNC(=N)N)NC(=O)[C@H](CCCNC(=N)N)NC(=O)[C@H](Cc1ccc(O)cc1)NC(=O)[C@H](CC(C)C)NC(=O)[C@@H]1CCCN1C(=O)[C@H](CC(N)=O)NC(=O)[C@H](CCCCN)NC(=O)[C@H](C)NC(=O)[C@H](CCCCN)NC(=O)[C@H](CO)NC(=O)[C@@H](N)CCCNC(=N)N)NC(=O)[C@H](CCCCNC(=O)[C@H](CCCNC(=N)N)NC(=O)[C@H](Cc1ccc(O)cc1)NC(=O)[C@H](CC(C)C)NC(=O)[C@@H]1CCCN1C(=O)[C@H](CC(N)=O)NC(=O)[C@H](CCCCN)NC(=O)[C@H](C)NC(=O)[C@H](CCCCN)NC(=O)[C@H](CO)NC(=O)[C@@H](N)CCCNC(=N)N)NC(=O)[C@H](CCCNC(=N)N)NC(=O)[C@H](Cc1ccc(O)cc1)NC(=O)[C@H](CC(C)C)NC(=O)[C@@H]1CCCN1C(=O)[C@H](CC(N)=O)NC(=O)[C@H](CCCCN)NC(=O)[C@H](C)NC(=O)[C@H](CCCCN)NC(=O)[C@H](CO)NC(=O)[C@@H](N)CCCNC(=N)N)C(=O)NCCC(N)=O` [Dend 8-10(4)] was tested, and the “greater inhibition of activated phospho-ERK 1/2 than the closest test agent (TAT-G RSKAKNPLYR)” value ([1]; 5 μM, 1 hour, FCS stimulated HT29 cells) was “at least 30%”, the “inhibition of activated phospho-ERK1/2” value ([1]; 5 μM, 4 hours, HT29 cells, data not shown) was “approx. 95%” and the “ERK1/2 activation (phospho-ERK1/2 levels) upon serum (FCS) stimulation, HT29 cells” value ([1]; exposure to dendrimer for 4 hours prior to FCS) was “abolished ERK1/2 activation in a dose-dependent manner; also recorded: significantly reduced”. For the same compound, the “inhibition of ERK1/2 activity upon FCS stimulation, skin fibroblast cells” value [2] was “much less inhibition” and the “inhibition of proliferation of HT29 colon cancer cells” value [3] was “substantially more effective at inhibiting cell growth/proliferation”.
